Measurements taken from US8173694B2, “Therapeutic agent” (Pentraxin Therapeutics Limited, priority 2001, dated 2012).

Key:
CRP in whole human serum = target: T1, CRP in whole human serum (Homo sapiens, UniProt P02741); test: Size exclusion chromatography of whole human serum mixed with drug: CRP; assay type: binding
T1 construct: Aliquots of a single pool of whole normal human serum, containing SAP and CRP; from tissue; host or cells: pooled whole normal human serum
T1 sequence (P02741 19-224): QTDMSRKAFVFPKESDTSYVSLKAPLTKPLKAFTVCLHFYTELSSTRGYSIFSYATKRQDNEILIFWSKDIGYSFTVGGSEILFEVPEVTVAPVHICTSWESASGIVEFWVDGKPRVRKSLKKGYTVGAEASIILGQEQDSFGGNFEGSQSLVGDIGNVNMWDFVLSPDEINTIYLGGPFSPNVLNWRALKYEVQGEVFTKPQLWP
Protocol: Aliquots of a single pool of whole normal human serum, containing SAP and CRP, were mixed with (R)-1-[6-(R)-2-Carboxy-pyrrolidin-1-yl]-6-oxo-hexanoyl]pyrrolidine-2-carboxylic acid at the molar ratios shown, with respect to pentraxin protomer, and analysed by size exclusion chromatography precisely as described previously (14). The mixtures and the column eluants contained either no calcium ions or 2 mM calcium, and the concentrations of drug appropriate to maintain the molar ratios indicated above. SAP in whole serum is a stable soluble pentameric assembly of protomers, stabilised by the presence of the normal high concentration of serum albumin. However as SAP is separated from serum albumin during gel filtration with a calcium containing eluant, the SAP autoaggregates and elutes entirely as high molecular weight polymers in the void volume of the column. This is because, in the absence of a specific ligand to which it can bind, isolated human SAP is insoluble in the presence of calcium (14). However in the absence of calcium, where no ligand binding or autoaggregation can occur, SAP forms stable decamers, providing an excellent marker for the elution volume of this molecular assembly (14). Human CRP is a stable pentamer either in the presence or absence of calcium and thus provides a robust marker for the elution position of that molecular form (14).

isolated pure human CRP = target: T2, isolated pure human CRP (Homo sapiens, UniProt P02741); test: Size exclusion chromatography of isolated pure CRP mixed with drug; assay type: binding
T2 sequence (P02741 19-224): T1 sequence (P02741 19-224)
Protocol: C-reactive protein (CRP) is a pentraxin closely related to SAP. Samples of isolated pure human SAP or CRP were mixed with (R)-1-[6-(R)-2-Carboxy-pyrrolidin-1-yl]-6-oxo-hexanoyl]pyrrolidine-2-carboxylic acid at the molar ratios shown, with respect to pentraxin protomer, in physiological ionic strength Tris buffered saline pH 8.0, and analysed by size exclusion chromatography precisely as described previously (14). The mixtures and the column eluants contained either no calcium ions or 2 mM calcium, and the concentrations of drug appropriate to maintain the molar ratios indicated above. In the absence of a specific ligand to which it can bind, purified human SAP is insoluble in the presence of calcium and elutes as high molecular weight aggregates in the void volume of the column (14). However in the absence of calcium and ligand, isolated SAP alone forms stable decamers, providing an excellent marker for the elution volume of this molecular assembly (14). Human CRP is a stable pentamer either in the presence or absence of calcium and thus provides a robust marker for the elution position of that molecular form (14).

plasma SAP = target: T3, plasma SAP (Homo sapiens, UniProt P02743); test: Intravenous infusion for 48 h in patients: plasma SAP by electroimmunoassay; assay type: in vivo
T3 construct: from tissue; host or cells: plasma of patients in vivo
Protocol: Patients with different forms of systemic amyloidosis, and with varying amyloid loads received the doses of the drug shown for a period of 48 h. Circulating SAP values were measured by electroimmunoassay (24) in samples taken during and after the infusion, at the times shown. Each line represents a different individual patient.
(R)-1-[6-(R)-2-Carboxy-pyrrolidin-1-yl]-6-oxo-hexanoyl]pyrrolidine-2-carboxylic acid was administered for 48 h by intravenous infusion to 8 patients with systemic amyloidosis (7 with AL and one with AA type), one patient with minor localised AL amyloidosis, and one who is a carrier of the amyloidogenic Ala60 transthyretin variant but has no clinical amyloidosis. […] In initial studies with slow continuous infusion, the SAP concentration started to fall when about 2 mg of (R)-1-[6-(R)-2-Carboxy-pyrrolidin-1-yl]-6-oxo-hexanoyl]pyrrolidine-2-carboxylic acid had been given, and in subsequent studies this amount was therefore injected as a bolus at the outset, followed by infusion at the rates shown (FIG. 4). […] However, after drug infusion had ceased, the plasma SAP concentration rapidly returned to normal in the individuals with little or no amyloid, whereas this recovery was markedly delayed in subjects with significant amyloidosis. In the one patient with a very heavy amyloid load, the plasma SAP concentration remained below 25% of its initial value 20 days after the infusion. Most of the daily production of SAP, which is about 50-100 mg per day (15), was evidently distributing into the amyloid deposits before becoming available to replete the plasma pool. This is very strong indirect evidence that even such a brief infusion of (R)-1-[6-(R)-2-Carboxy-pyrrolidin-1-yl]-6-oxo-hexanoyl]pyrrolidine-2-carboxylic acid had substantially depleted the amyloid-associated SAP.
Two individual patients with systemic amyloidosis and moderate amyloid loads received (R)-1-[6-(R)-2-Carboxy-pyrrolidin-1-yl]-6-oxo-hexanoyl]pyrrolidine-2-carboxylic acid (desapin) by intravenous infusion at the steady rates shown. Circulating SAP concentrations started to fall almost immediately and had halved when the concentrations of drug and SAP protomer were equimolar.
The potency of (R)-1-[6-(R)-2-Carboxy-pyrrolidin-1-yl]-6-oxo-hexanoyl]pyrrolidine-2-carboxylic acid in depleting circulating SAP was remarkable, with SAP values falling when the concentration ratio of drug to SAP pentamer in the plasma approached equimolar (FIG. 7). […] This is evidently the species recognised as abnormal and promptly cleared by the liver.

[1] = Metabolism, excretion and oral bioavailability in mice; assay type: in vivo, mouse
[2] = drug:protein 1:1, calcium present
[3] = drug:protein 10:1, calcium present
[4] = drug:protein 100:1, calcium present

T3 sequence (P02743 20-223): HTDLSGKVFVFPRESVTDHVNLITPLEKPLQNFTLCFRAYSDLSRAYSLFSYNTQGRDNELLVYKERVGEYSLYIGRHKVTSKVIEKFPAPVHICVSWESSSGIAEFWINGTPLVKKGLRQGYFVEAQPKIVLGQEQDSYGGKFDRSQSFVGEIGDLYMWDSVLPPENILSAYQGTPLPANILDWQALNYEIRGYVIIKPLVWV

## O=C(O)[C@H]1CCCN1C(=O)CCCCC(=O)N1CCC[C@@H]1C(=O)O [(R)-1-[6-(R)-2-Carboxy-pyrrolidin-1-yl]-6-oxo-hexanoyl]pyrrolidine-2-carboxylic acid]
CRP in whole human serum; [2]
  Elution volume: 12.0 to 12.5 mL
  Molecular assembly: Pentamer
CRP in whole human serum; [3]
  Elution volume: 12.0 to 12.5 mL
  Molecular assembly: Pentamer
CRP in whole human serum; [4]
  Elution volume: 12.0 to 12.5 mL
  Molecular assembly: Pentamer
Isolated pure human CRP; [2]
  Elution volume: 12.58 mL
  Molecular assembly: Pentamer
Isolated pure human CRP; [3]
  Elution volume: 11.96 mL
  Molecular assembly: Pentamer
Plasma SAP; 0.25 mg/kg/day and all higher rates up to 6 mg/kg/day
  SAP clearance from plasma by the end of the infusion: almost completely cleared
Plasma SAP; 48 h intravenous infusion, all 10 subjects
  Depletion of circulating SAP: dramatic, rapid, and consistent depletion
Plasma SAP; 20 days after the infusion, one patient with very heavy amyloid load
  Plasma SAP concentration, of its initial value: below 25%
Plasma SAP; infusion rate 0.1 mg/kg/day
  SAP depletion: slower and less complete
Plasma SAP; slow continuous intravenous infusion
  Amount of drug given when SAP concentration started to fall: about 2 mg
Plasma SAP; two patients, 48 h intravenous infusion
  Circulating SAP concentration when drug and SAP protomer concentrations were equimolar: halved
[1]
  Excretion: very rapidly excreted, predominantly in the urine, with a small amount in the bile
  Metabolism: not metabolised
  Oral bioavailability: very limited oral bioavailability
